How the values were obtained:
[1] = system: Diglycosidase derived from P. multicolor; test: Reactivity toward various isoflavone glycosides (HPLC); assay type: biochemical, Penicillium multicolor; design: glucoside / aglycon: unit not given here; conditions: 55 °C, pH 4.0
Procedure: (§1) Diglycosidase was diluted with an acetate buffer of pH 4.0 to prepare a 0.75 AU/mL enzyme solution. As references, a similar operation was conducted using β-glucosidase (manufactured by Fluka) derived from Aspergillus niger, β-glucosidase (manufactured by Sigma) derived from almond, β-xylosidase derived from pectinase G (manufactured by Amano Enzyme Inc.). Each of purified products of isoflavone glycosides (glycitin, acetylglycitin, malonylglycitin, daidzin, acetyldaidzin, malonyldaidzin, genistin, acetylgenistin, malonylgenistin, all manufactured by Nacalai Tesque, Inc.) was dissolved in methanol to prepare each 2 mM substrate solution. The reaction was carried out by mixing 10 μL of a substrate solution, 200 μL of 20 mM acetate buffer (pH 4.0), and 40 μL of each purified enzyme solution at a total liquid volume of 250 μL. The reaction was carried out at 55° C. and isolation of an aglycon isoflavone from an isoflavone glycoside in the reaction mixture was detected by HLPC at 0, 1, 3, and 6 hours of the reaction.
(§2) To the reaction mixture was added 700 μL of ethanol, followed by stirring and ultrasonication. After centrifugation at 15,000 rpm and 4° C. for 10 minutes, the supernatant was filtered through a filter and then the filtrate was applied to HPLC.
(§3) The isoflavone glycoside and aglycon isoflavone contained in the filtrate was separated and detected by a high performance liquid chromatography (HPLC, Shimadzu CLASS LC-10 system) using TOSOH TSK gel ODS-80TM column (manufactured by Tosoh Corporation). […] The absorbance at 260 nm was detected by a UV detector (Shimadzu, SPD-10AV). Using purified products (manufactured by Nacalai Tesque, Inc.) of the above isoflavone glycosides and aglycon isoflavones, the isoflavone glycoside and aglycon isoflavone were quantitatively determined according to a calibration curve method. By the way, unless otherwise stated, the measuring conditions of HPLC herein mean those described in the example.

[2] = system: β-Glucosidase derived from A. niger; test: as above; assay type: biochemical, Aspergillus niger; design: glucoside / aglycon: unit not given here; conditions: 55 °C, pH 4.0
Procedure: as §1, §2, §3

Crude diglycosidase = test: Examination of substrate concentration in the conversion into isoflavone aglycons by diglycosidase using soybean materials; assay type: biochemical, Penicillium multicolor IAM7153;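 further: percent of the isoflavone family total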
Summary of the method: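 Soybean materials (roasted soy flour, soymilk, defatted soybean, concentrated soy protein) at 2–30% (w/v) in 20 mM acetate pH 4.0 were reacted with crude diglycosidase at 55° C with shaking; enzyme solution added was 1.88 AU/mL. Samples taken at 0, 1, 3 and 6 h were ethanol-extracted and analyzed by HPLC.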

aglycon ([1]; Reaction time 0 h): 0 | glucoside ([1]; Reaction time 0 h): 100 | aglycon ([1]; Reaction time 1 h): 98 | glucoside ([1]; Reaction time 1 h): 2 | aglycon ([1]; Reaction time 3 h): 97.9 | glucoside ([1]; Reaction time 3 h): 2.1 | aglycon ([1]; Reaction time 6 h): 97.5 | glucoside ([1]; Reaction time 6 h): 2.5 | aglycon ([2]; Reaction time 0 h): 0 | glucoside ([2]; Reaction time 0 h): 100 | aglycon ([2]; Reaction time 1 h): 0 | glucoside ([2]; Reaction time 1 h): 100 | aglycon ([2]; Reaction time 3 h): 1 | glucoside ([2]; Reaction time 3 h): 99 | aglycon ([2]; Reaction time 6 h): 1.9 | glucoside ([2]; Reaction time 6 h): 98.1 | Decomposition efficiency: ratio of each glycoside/aglycon within its isoflavone family (Crude diglycosidase; concentrated soybean protein, substrate concentration 2%, heat treatment of enzyme no, reaction time 0 h): 35.8% | Decomposition efficiency: ratio of each glycoside/aglycon within its isoflavone family (Crude diglycosidase; concentrated soybean protein, substrate concentration 2%, heat treatment of enzyme no, reaction time 1 h): 14.3% | Decomposition efficiency: ratio of each glycoside/aglycon within its isoflavone family (Crude diglycosidase; concentrated soybean protein, substrate concentration 2%, heat treatment of enzyme no, reaction time 3 h): 5.3% | Decomposition efficiency: ratio of each glycoside/aglycon within its isoflavone family (Crude diglycosidase; concentrated soybean protein, substrate concentration 2%, heat treatment of enzyme no, reaction time 6 h): 0.0% | Decomposition efficiency: ratio of each glycoside/aglycon within its isoflavone family (Crude diglycosidase; concentrated soybean protein, substrate concentration 2%, heat treatment of enzyme yes, reaction time 6 h): 35.0% | Decomposition efficiency: ratio of each glycoside/aglycon within its isoflavone family (Crude diglycosidase; concentrated soybean protein, substrate concentration 5%, heat treatment of enzyme no, reaction time 0 h): 35.6% | Decomposition efficiency: ratio of each glycoside/aglycon within its isoflavone family (Crude diglycosidase; concentrated soybean protein, substrate concentration 5%, heat treatment of enzyme no, reaction time 1 h): 27.1% | Decomposition efficiency: ratio of each glycoside/aglycon within its isoflavone family (Crude diglycosidase; concentrated soybean protein, substrate concentration 5%, heat treatment of enzyme no, reaction time 3 h): 17.8% | Decomposition efficiency: ratio of each glycoside/aglycon within its isoflavone family (Crude diglycosidase; concentrated soybean protein, substrate concentration 5%, heat treatment of enzyme no, reaction time 6 h): 12.3% | Decomposition efficiency: ratio of each glycoside/aglycon within its isoflavone family (Crude diglycosidase; concentrated soybean protein, substrate concentration 5%, heat treatment of enzyme yes, reaction time 6 h): 34.4% | Decomposition efficiency: ratio of each glycoside/aglycon within its isoflavone family (Crude diglycosidase; concentrated soybean protein, substrate concentration 10%, heat treatment of enzyme no, reaction time 0 h): 35.7% | Decomposition efficiency: ratio of each glycoside/aglycon within its isoflavone family (Crude diglycosidase; concentrated soybean protein, substrate concentration 10%, heat treatment of enzyme no, reaction time 1 h): 31.2% | Decomposition efficiency: ratio of each glycoside/aglycon within its isoflavone family (Crude diglycosidase; concentrated soybean protein, substrate concentration 10%, heat treatment of enzyme no, reaction time 3 h): 26.2% | Decomposition efficiency: ratio of each glycoside/aglycon within its isoflavone family (Crude diglycosidase; concentrated soybean protein, substrate concentration 10%, heat treatment of enzyme no, reaction time 6 h): 23.9% | Decomposition efficiency: ratio of each glycoside/aglycon within its isoflavone family (Crude diglycosidase; concentrated soybean protein, substrate concentration 10%, heat treatment of enzyme yes, reaction time 6 h): 35.2% | Decomposition efficiency: ratio of each glycoside/aglycon within its isoflavone family (Crude diglycosidase; concentrated soybean protein, substrate concentration 20%, heat treatment of enzyme no, reaction time 0 h): 35.9% | Decomposition efficiency: ratio of each glycoside/aglycon within its isoflavone family (Crude diglycosidase; concentrated soybean protein, substrate concentration 20%, heat treatment of enzyme no, reaction time 1 h): 35.4% | Decomposition efficiency: ratio of each glycoside/aglycon within its isoflavone family (Crude diglycosidase; concentrated soybean protein, substrate concentration 20%, heat treatment of enzyme no, reaction time 3 h): 33.6% | Decomposition efficiency: ratio of each glycoside/aglycon within its isoflavone family (Crude diglycosidase; concentrated soybean protein, substrate concentration 20%, heat treatment of enzyme no, reaction time 6 h): 30.5% | Decomposition efficiency: ratio of each glycoside/aglycon within its isoflavone family (Crude diglycosidase; concentrated soybean protein, substrate concentration 20%, heat treatment of enzyme yes, reaction time 6 h): 35.8% | Decomposition efficiency: ratio of each glycoside/aglycon within its isoflavone family (Crude diglycosidase; concentrated soybean protein, substrate concentration 30%, heat treatment of enzyme no, reaction time 0 h): 33.9% | Decomposition efficiency: ratio of each glycoside/aglycon within its isoflavone family (Crude diglycosidase; concentrated soybean protein, substrate concentration 30%, heat treatment of enzyme no, reaction time 1 h): 35.9% | Decomposition efficiency: ratio of each glycoside/aglycon within its isoflavone family (Crude diglycosidase; concentrated soybean protein, substrate concentration 30%, heat treatment of enzyme no, reaction time 3 h): 30.7% | Decomposition efficiency: ratio of each glycoside/aglycon within its isoflavone family (Crude diglycosidase; concentrated soybean protein, substrate concentration 30%, heat treatment of enzyme no, reaction time 6 h): 28.3% | Decomposition efficiency: ratio of each glycoside/aglycon within its isoflavone family (Crude diglycosidase; concentrated soybean protein, substrate concentration 30%, heat treatment of enzyme yes, reaction time 6 h): 33.4% | Decomposition efficiency: ratio of each glycoside/aglycon within its isoflavone family (Crude diglycosidase; defatted soybean, substrate concentration 2%, heat treatment of enzyme no, reaction time 0 h): not detected | Decomposition efficiency: ratio of each glycoside/aglycon within its isoflavone family (Crude diglycosidase; defatted soybean, substrate concentration 2%, heat treatment of enzyme no, reaction time 1 h): not detected | Decomposition efficiency: ratio of each glycoside/aglycon within its isoflavone family (Crude diglycosidase; defatted soybean, substrate concentration 2%, heat treatment of enzyme no, reaction time 3 h): not detected | Decomposition efficiency: ratio of each glycoside/aglycon within its isoflavone family (Crude diglycosidase; defatted soybean, substrate concentration 2%, heat treatment of enzyme no, reaction time 6 h): not detected | Decomposition efficiency: ratio of each glycoside/aglycon within its isoflavone family (Crude diglycosidase; defatted soybean, substrate concentration 2%, heat treatment of enzyme yes, reaction time 6 h): not detected | Decomposition efficiency: ratio of each glycoside/aglycon within its isoflavone family (Crude diglycosidase; defatted soybean, substrate concentration 5%, heat treatment of enzyme no, reaction time 0 h): not detected | Decomposition efficiency: ratio of each glycoside/aglycon within its isoflavone family (Crude diglycosidase; defatted soybean, substrate concentration 5%, heat treatment of enzyme no, reaction time 1 h): not detected | Decomposition efficiency: ratio of each glycoside/aglycon within its isoflavone family (Crude diglycosidase; defatted soybean, substrate concentration 5%, heat treatment of enzyme no, reaction time 3 h): not detected | Decomposition efficiency: ratio of each glycoside/aglycon within its isoflavone family (Crude diglycosidase; defatted soybean, substrate concentration 5%, heat treatment of enzyme no, reaction time 6 h): not detected | Decomposition efficiency: ratio of each glycoside/aglycon within its isoflavone family (Crude diglycosidase; defatted soybean, substrate concentration 5%, heat treatment of enzyme yes, reaction time 6 h): not detected | Decomposition efficiency: ratio of each glycoside/aglycon within its isoflavone family (Crude diglycosidase; defatted soybean, substrate concentration 10%, heat treatment of enzyme no, reaction time 0 h): not detected | Decomposition efficiency: ratio of each glycoside/aglycon within its isoflavone family (Crude diglycosidase; defatted soybean, substrate concentration 10%, heat treatment of enzyme no, reaction time 1 h): not detected | Decomposition efficiency: ratio of each glycoside/aglycon within its isoflavone family (Crude diglycosidase; defatted soybean, substrate concentration 10%, heat treatment of enzyme no, reaction time 3 h): not detected | Decomposition efficiency: ratio of each glycoside/aglycon within its isoflavone family (Crude diglycosidase; defatted soybean, substrate concentration 10%, heat treatment of enzyme no, reaction time 6 h): not detected | Decomposition efficiency: ratio of each glycoside/aglycon within its isoflavone family (Crude diglycosidase; defatted soybean, substrate concentration 10%, heat treatment of enzyme yes, reaction time 6 h): not detected | Decomposition efficiency: ratio of each glycoside/aglycon within its isoflavone family (Crude diglycosidase; roasted soy flour, substrate concentration 2%, heat treatment of enzyme no, reaction time 0 h): 33.6% | Decomposition efficiency: ratio of each glycoside/aglycon within its isoflavone family (Crude diglycosidase; roasted soy flour, substrate concentration 2%, heat treatment of enzyme no, reaction time 1 h): not detected | Decomposition efficiency: ratio of each glycoside/aglycon within its isoflavone family (Crude diglycosidase; roasted soy flour, substrate concentration 2%, heat treatment of enzyme no, reaction time 3 h): not detected | Decomposition efficiency: ratio of each glycoside/aglycon within its isoflavone family (Crude diglycosidase; roasted soy flour, substrate concentration 2%, heat treatment of enzyme no, reaction time 6 h): not detected | Decomposition efficiency: ratio of each glycoside/aglycon within its isoflavone family (Crude diglycosidase; roasted soy flour, substrate concentration 2%, heat treatment of enzyme yes, reaction time 6 h): 34.4% | Decomposition efficiency: ratio of each glycoside/aglycon within its isoflavone family (Crude diglycosidase; roasted soy flour, substrate concentration 5%, heat treatment of enzyme no, reaction time 0 h): 33.8% | Decomposition efficiency: ratio of each glycoside/aglycon within its isoflavone family (Crude diglycosidase; roasted soy flour, substrate concentration 5%, heat treatment of enzyme no, reaction time 1 h): 11.8% | Decomposition efficiency: ratio of each glycoside/aglycon within its isoflavone family (Crude diglycosidase; roasted soy flour, substrate concentration 5%, heat treatment of enzyme no, reaction time 3 h): 7.2% | Decomposition efficiency: ratio of each glycoside/aglycon within its isoflavone family (Crude diglycosidase; roasted soy flour, substrate concentration 5%, heat treatment of enzyme no, reaction time 6 h): not detected | Decomposition efficiency: ratio of each glycoside/aglycon within its isoflavone family (Crude diglycosidase; roasted soy flour, substrate concentration 5%, heat treatment of enzyme yes, reaction time 6 h): 33.8% | Decomposition efficiency: ratio of each glycoside/aglycon within its isoflavone family (Crude diglycosidase; roasted soy flour, substrate concentration 10%, heat treatment of enzyme no, reaction time 0 h): 24.2% | Decomposition efficiency: ratio of each glycoside/aglycon within its isoflavone family (Crude diglycosidase; roasted soy flour, substrate concentration 10%, heat treatment of enzyme no, reaction time 1 h): 16.7% | Decomposition efficiency: ratio of each glycoside/aglycon within its isoflavone family (Crude diglycosidase; roasted soy flour, substrate concentration 10%, heat treatment of enzyme no, reaction time 3 h): 9.7% | Decomposition efficiency: ratio of each glycoside/aglycon within its isoflavone family (Crude diglycosidase; roasted soy flour, substrate concentration 10%, heat treatment of enzyme no, reaction time 6 h): not detected | Decomposition efficiency: ratio of each glycoside/aglycon within its isoflavone family (Crude diglycosidase; roasted soy flour, substrate concentration 10%, heat treatment of enzyme yes, reaction time 6 h): 35.1% | Decomposition efficiency: ratio of each glycoside/aglycon within its isoflavone family (Crude diglycosidase; roasted soy flour, substrate concentration 20%, heat treatment of enzyme no, reaction time 0 h): 31.8% | Decomposition efficiency: ratio of each glycoside/aglycon within its isoflavone family (Crude diglycosidase; roasted soy flour, substrate concentration 20%, heat treatment of enzyme no, reaction time 1 h): 22.9% | Decomposition efficiency: ratio of each glycoside/aglycon within its isoflavone family (Crude diglycosidase; roasted soy flour, substrate concentration 20%, heat treatment of enzyme no, reaction time 3 h): 13.8% | Decomposition efficiency: ratio of each glycoside/aglycon within its isoflavone family (Crude diglycosidase; roasted soy flour, substrate concentration 20%, heat treatment of enzyme no, reaction time 6 h): 10.0% | Decomposition efficiency: ratio of each glycoside/aglycon within its isoflavone family (Crude diglycosidase; roasted soy flour, substrate concentration 20%, heat treatment of enzyme yes, reaction time 6 h): 35.0% | Decomposition efficiency: ratio of each glycoside/aglycon within its isoflavone family (Crude diglycosidase; roasted soy flour, substrate concentration 30%, heat treatment of enzyme no, reaction time 0 h): 35.3% | Decomposition efficiency: ratio of each glycoside/aglycon within its isoflavone family (Crude diglycosidase; roasted soy flour, substrate concentration 30%, heat treatment of enzyme no, reaction time 1 h): 28.4% | Decomposition efficiency: ratio of each glycoside/aglycon within its isoflavone family (Crude diglycosidase; roasted soy flour, substrate concentration 30%, heat treatment of enzyme no, reaction time 3 h): 24.4% | Decomposition efficiency: ratio of each glycoside/aglycon within its isoflavone family (Crude diglycosidase; roasted soy flour, substrate concentration 30%, heat treatment of enzyme no, reaction time 6 h): 13.7% | Decomposition efficiency: ratio of each glycoside/aglycon within its isoflavone family (Crude diglycosidase; roasted soy flour, substrate concentration 30%, heat treatment of enzyme yes, reaction time 6 h): 34.4%
Compound: COc1cc2c(=O)c(-c3ccc(O)cc3)coc2cc1O[C@@H]1O[C@H](COC(C)=O)[C@@H](O)[C@H](O)[C@H]1O [acetylglycitin, 6″-O-acetylglycitin]
